Laboratory results taken from patent US20140221480A1, “METHODS OF MANAGING BRAIN INFLAMMATION” (EMORY UNIVERSITY, priority 2013, published 2014).
“Also recorded” adds a separate entry of the source. Like-named read-outs stand apart in the source and are kept apart here.

Legend:
Format in all cases: in vivo, mice (C57BL/6J)
[1] = system: inflammatory cytokines in ischemic brain; assay: Antibody array of inflammatory cytokines in ischemic brain tissue; conditions: 6 hrs after cerebral I/R; 3 mg/kg i.p.; vs untreated controls, p<0.05
Source text: (§1) Animals—Fifty male mice (C57BL/6J, body weight 25˜30 g) were obtained from Jackson Laboratory and maintained in the Division of Laboratory Animal Resources at Emory University”. The experiments outlined in this manuscript conform to the Guide for the Care and Use of Laboratory Animals published by the National Institutes of Health. The animal care and experimental protocols were approved by the Emory University Committee on Animal Care. Animals were randomly assigned to four groups: sham control (S, n=4, for molecular analysis), focal cerebral ischemia/reperfusion (I/R, n=16; 5 for molecular analysis), Sham+TAK-242 (S-T, n=4, for molecular analysis), and I/R+TAK-242 (I/R-T, n=16; 5 for molecular analysis). Ten mice were used for the measurement of TAK-242 concentration in plasma and brain tissue.
(§2) Focal cerebral ischemia/reperfusion—Focal cerebral FR was induced by occlusion of the middle cerebral artery (MCAO) on the left side. Mice were subjected to anesthesia by 5.0% isoflurane and maintained by inhalation of 1.5% to 2% isoflurane driven by 100% oxygen flow. Mice were ventilated (110 breaths/min with volume 0.5 ml) and body temperature was regulated at 37.0° C. Heart rate and PO2 were monitored during surgery. Following the skin incision, the left common carotid artery (CCA), the external carotid artery (ECA), and the internal carotid artery (ICA) were carefully exposed. Microvascular aneurysm clips were applied to the left CCA and the ICA. A coated 6-0 filament (6023PK, Doccol Corp. CA, USA) was introduced into an arteriotomy hole, fed distally into the ICA and advanced 11 mm from the carotid bifurcation. The ICA clamp was removed and focal cerebral ischemia started. After ischemia for 60 min, the filament and the CCA clamp were gently removed (reperfusion starts). The collar suture at the base of the ECA stump was tightened. The skin was closed, anesthesia discontinued, and the animal allowed to recover in a pre-warmed cage. Control mice underwent a neck dissection and coagulation of the external carotid artery, but no occlusion of the MCA. Ischemia and reperfusion were confirmed by rCBF.
(§3) TAK-242 treatment—TAK-242 was dissolved in DMSO and then diluted in sterile endotoxin-free water and injected intraperitoneally (i.p., 3 mg/kg body weight) 1 hr after MCAO or sham surgical operation.
Antibody array—Proteins were prepared from ischemic cerebral hemispheres. Forty inflammatory cytokines were analyzed by antibody arrays (RayBio® Cytokine Antibody Arrays—Mouse Inflammation Antibody Array G Series I). Briefly, the glass chips were air-dried for 60 min and assembled into an incubation chamber and incubation frame. […] The signal data was collected and analyzed by software from RayBiotech, Inc. (Atlanta, Ga., USA). […]

[2] = system: mice subjected to acute cerebral I/R; assay: Evaluation of neurological score after focal cerebral ischemia/reperfusion (MCAO); conditions: 24 hrs after cerebral I/R; 3 mg/kg i.p. 1 hr after ischemia; scale 0 to 15, 15 perfect; control group 4.38
Source text: as §1
Focal cerebral ischemia/reperfusion—Focal cerebral FR was induced by occlusion of the middle cerebral artery (MCAO) on the left side. Mice were subjected to anesthesia by 5.0% isoflurane and maintained by inhalation of 1.5% to 2% isoflurane driven by 100% oxygen flow. Mice were ventilated (110 breaths/min with volume 0.5 ml) and body temperature was regulated at 37.0° C. Heart rate and PO2 were monitored during surgery. […]
Evaluation of neurological score—Mice were scored by a blinded investigator. […]

[3] = system: mice subjected to acute cerebral I/R; assay: Assessment of cerebral infarct size by TTC staining after focal cerebral ischemia/reperfusion (MCAO); conditions: 24 hrs after cerebral I/R, 3 mg/kg i.p. 1 hr after ischemia
Source text: Animals—Fifty male mice (C57BL/6J, body weight 25˜30 g) were obtained from Jackson Laboratory and maintained in the Division of Laboratory Animal Resources at Emory University”. The experiments outlined in this manuscript conform to the Guide for the Care and Use of Laboratory Animals published by the National Institutes of Health. The animal care and experimental protocols were approved by the Emory University Committee on Animal Care. […]
Focal cerebral ischemia/reperfusion—Focal cerebral FR was induced by occlusion of the middle cerebral artery (MCAO) on the left side. […] Heart rate and PO2 were monitored during surgery. […]
Assessment of cerebral infarct size—Twenty-four hours after FR, mice were sacrificed and perfused with ice-cold phosphate buffered saline (PBS) via the ascending aorta. […] The infarct areas were traced and quantified with ImageJ analysis system. […] The area of infarction and the area of both hemispheres were calculated for each brain slice. An edema index was calculated by dividing the total volume of the left hemisphere by the total volume of the right hemisphere. The actual infarct volume adjusted for edema was calculated by dividing the infarct volume by the edema index. Infarct volumes are expressed as percentage of the total brain volume±S.E.M.

[4] = Concentration of TAK-242 in plasma and brain tissue after i.p. injection (LC-MS/MS); conditions: for concentration at 3 h / concentration at 8 h / concentration at 24 h: male, C57BL/6J, mouse, ip, 3 mg/kg body weight; for concentration at 3 h: 3 hrs after i.p. injection; for concentration at 8 h: 8 hrs after i.p. injection; for concentration at 24 h: 24 hrs after i.p. injection
Source text: as §1, §2, §3
Measurement of TAK242 concentration in plasma and brain tissue—Three, 8 or 24 hours after the injection of TAK242, the mice were anesthetized with 5.0% isoflurane driven by 100% oxygen flow. Blood (0.95 ml) was drawn from the left ventricle and immediately mixed with 0.05 mL sodium citrate (CCS). The samples were incubated at room temperature for 30 min and centrifuged at 8000 rpm. The plasma was collected and stored at −80° C. for future use Immediately after the blood was drawn, the mice were perfused with ice-cold normal saline via the ascending aorta until the perfusion buffer was clear from the right atrium. The brains were removed and weighed. Brain tissues were homogenized with buffer, and centrifuged at 14000 rpm for 10 min. Supernatants were collected and stored at −80° C. The concentrations of TAK-242 were detected by Intertek (USA) using Liquid Chromatography with Tandem Mass Spectrometry Detection (LC-MS/MS). Briefly, TAK-242 and internal standard (Bromfenac) were extracted from 50 μL of mouse plasma or brain homogenate by liquid-liquid extraction using methyltertiary-butyl ether (MTBE). After evaporation to dryness and reconstitution, the extracts were analyzed by LC-MS/MS. Run times were approximately 5 min. The Lower Limit of Quantitation (LLOQ) for TAK-242 is 0.5 ng/ml for plasma and 2 ng/g for brain homogenate.

[5] = hemisphere contralateral to ischemia, brain tissue, read-out: concentration of TAK-242 in hemisphere contralateral to ischemia
[6] = ischemic (ipsilateral) hemisphere, brain tissue, read-out: concentration of TAK-242 in ischemic (ipsilateral) hemisphere
[7] = plasma, mice with tMCAO, read-out: concentration of TAK-242 in plasma

## CCOC(=O)C1=CCCC[C@H]1S(=O)(=O)Nc1ccc(F)cc1Cl [TAK-242, ethyl (6R)-6-[N-(2-chloro-4-fluorophenyl)sulfamoyl]cyclohex-1-ene-1-carboxylate]
[1]
  level of MCP-1 in brain tissue: significantly reduced
  level of MIP-1γ in brain tissue: significantly reduced
  level of TIMP-1 in brain tissue: significantly reduced
  level of sTNF RII in brain tissue: significantly reduced
[2]
  neurological score: 6.73
[3]; control group 21.3%
  brain infarct size: 12.5%
[3]; p<0.05
  reduction of brain infarct size compared to control mice: 41%
[4]; 3 mg/kg i.p., mice
  ability to pass through the blood brain barrier (BBB): passes the blood-brain barrier; also recorded: can pass through the BBB
[4]; 3 mg/kg i.p., p<0.05
  concentration in ischemic hemisphere compared with contralateral hemisphere: significantly higher
[4]; [5]
  concentration at 3 h: 14.2 ng/mL
  concentration at 8 h: 15.1 ng/mL
  concentration at 24 h: 17.5 ng/mL
[4]; [6]
  concentration at 3 h: 26.1 ng/mL
  concentration at 8 h: 26.4 ng/mL
  concentration at 24 h: 25 ng/mL
[4]; [7]
  concentration at 3 h: 52 ng/mL
  concentration at 8 h: 54.1 ng/mL
  concentration at 24 h: 22.6 ng/mL
